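Following 48 hours of exposure in 96-well plates, responses at five concentrations were used to interpolate endpoints linearly. GI50: concentration for 50% inhibition of growth. TGI is the concentration that stops growth completely.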
Columns and labels:
Test in all cases: NCI-60 cell line screen, 48 h
[1] = test system: 786-0 renal
[2] = test system: A498 renal
[3] = test system: A549 NSCLC
[4] = test system: ACHN renal
[5] = test system: BT-549 breast
[6] = test system: CAKI-1 renal
[7] = test system: CCRF-CEM leukemia
[8] = test system: COLO 205 colon
[9] = test system: DU-145 prostate
[10] = test system: EKVX NSCLC
[11] = test system: HCC-2998 colon
[12] = test system: HCT-116 colon
[13] = test system: HCT-15 colon
[14] = test system: HL-60(TB) leukemia
[15] = test system: HOP-62 NSCLC
[16] = test system: HOP-92 NSCLC
[17] = test system: HS 578T breast
[18] = test system: HT29 colon
[19] = test system: IGROV1 ovarian
[20] = test system: K-562 leukemia
[21] = test system: KM12 colon
[22] = test system: LOX IMVI melanoma
[23] = test system: M14 melanoma
[24] = test system: MALME-3M melanoma
[25] = test system: MCF7 breast
[26] = test system: MDA-MB-231 breast
[27] = test system: MDA-MB-435
[28] = test system: MDA-MB-468 breast
[29] = test system: MOLT-4 leukemia
[30] = test system: NCI-H226 lung
[31] = test system: NCI-H23 lung
[32] = test system: NCI-H460 lung
[33] = test system: NCI-H522 lung
[34] = test system: NCI/ADR-RES ovarian
[35] = test system: OVCAR-3 ovarian
[36] = test system: OVCAR-4 ovarian
[37] = test system: OVCAR-5 ovarian
[38] = test system: OVCAR-8 ovarian
[39] = test system: PC-3 prostate
[40] = test system: RPMI-8226 leukemia
[41] = test system: RXF 393 renal
[42] = test system: SF-268 CNS
[43] = test system: SF-295 CNS
[44] = test system: SF-539 CNS
[45] = test system: SK-MEL-2 melanoma
[46] = test system: SK-MEL-28 melanoma
[47] = test system: SK-MEL-5 melanoma
[48] = test system: SK-OV-3 ovarian
[49] = test system: SN12C renal
[50] = test system: SNB-19 CNS
[51] = test system: SNB-75 CNS
[52] = test system: SW-620 colon
[53] = test system: T-47D breast
[54] = test system: TK-10 renal
[55] = test system: U251 CNS
[56] = test system: UACC-257 melanoma
[57] = test system: UACC-62 melanoma
[58] = test system: UO-31 renal

O=C(N=Nc1c(O)[nH]c2ccc(Br)cc12)c1ccc2nc(-c3ccccc3)[nH]c2c1
GI50 [1]: 2.01 µM
TGI [1]: 3.91 µM
GI50 [2]: 3.55 µM
TGI [2]: 17.9 µM
GI50 [3]: 2.22 µM
TGI [3]: 7.41 µM
GI50 [4]: 8.96 µM
TGI [4]: > 100 µM
GI50 [5]: 3.55 µM
TGI [5]: 26.5 µM
GI50 [6]: > 100 µM
TGI [6]: > 100 µM
GI50 [7]: 3.18 µM
TGI [7]: > 100 µM
GI50 [8]: 2.53 µM
TGI [8]: 6.95 µM
GI50 [9]: 1.95 µM
TGI [9]: 4.06 µM
GI50 [10]: 3 µM
TGI [10]: 11.2 µM
GI50 [11]: 1.48 µM
TGI [11]: 3.11 µM
GI50 [12]: 3.24 µM
TGI [12]: 12.8 µM
GI50 [13]: 18.6 µM
TGI [13]: > 100 µM
GI50 [14]: 2.54 µM
TGI [14]: 6.73 µM
GI50 [15]: 1.69 µM
TGI [15]: 3.36 µM
GI50 [16]: 2.17 µM
TGI [16]: 6.63 µM
GI50 [17]: 1.86 µM
TGI [17]: 4.83 µM
GI50 [18]: 2.66 µM
TGI [18]: 8.75 µM
GI50 [19]: 3.03 µM
TGI [19]: 13.2 µM
GI50 [20]: 1.29 µM
TGI [20]: 6.99 µM
GI50 [21]: 22 µM
TGI [21]: > 100 µM
GI50 [22]: 1.23 µM
TGI [22]: 2.51 µM
GI50 [23]: 1.95 µM
TGI [23]: 4.14 µM
GI50 [24]: 1.62 µM
TGI [24]: 3.35 µM
GI50 [25]: 1.7 µM
TGI [25]: 5.09 µM
GI50 [26]: 1.69 µM
TGI [26]: 3.18 µM
GI50 [27]: 2.32 µM
TGI [27]: 4.93 µM
GI50 [28]: 1.61 µM
TGI [28]: 3.06 µM
GI50 [29]: 1.34 µM
TGI [29]: 4.01 µM
GI50 [30]: 2.03 µM
TGI [30]: 5.43 µM
GI50 [31]: 1.53 µM
TGI [31]: 3.65 µM
GI50 [32]: 1.79 µM
TGI [32]: 3.53 µM
GI50 [33]: 1.38 µM
TGI [33]: 3.1 µM
GI50 [34]: > 100 µM
TGI [34]: > 100 µM
GI50 [35]: 2.14 µM
TGI [35]: 4.26 µM
GI50 [36]: 1.99 µM
TGI [36]: 4.26 µM
GI50 [37]: 3.72 µM
TGI [37]: 27.1 µM
GI50 [38]: 1.53 µM
TGI [38]: 3.76 µM
GI50 [39]: 2.92 µM
TGI [39]: > 100 µM
GI50 [40]: 17.2 µM
TGI [40]: > 100 µM
GI50 [41]: 2.57 µM
TGI [41]: 6.6 µM
GI50 [42]: 2 µM
TGI [42]: 4.6 µM
GI50 [43]: 1.86 µM
TGI [43]: 3.78 µM
GI50 [44]: 1.77 µM
TGI [44]: 3.43 µM
GI50 [45]: 2.17 µM
TGI [45]: 4.78 µM
GI50 [46]: 1.79 µM
TGI [46]: 3.42 µM
GI50 [47]: 3.38 µM
TGI [47]: 12.1 µM
GI50 [48]: 1.97 µM
TGI [48]: 4.29 µM
GI50 [49]: 1.86 µM
TGI [49]: 4.11 µM
GI50 [50]: 1.79 µM
TGI [50]: 4.35 µM
GI50 [51]: 2.11 µM
TGI [51]: 5.62 µM
GI50 [52]: 1.82 µM
TGI [52]: 3.61 µM
GI50 [53]: 1.07 µM
TGI [53]: 2.52 µM
GI50 [54]: 3.61 µM
TGI [54]: 70.1 µM
GI50 [55]: 0.418 µM
TGI [55]: 1.59 µM
GI50 [56]: 3.27 µM
TGI [56]: 21.7 µM
GI50 [57]: 1.75 µM
TGI [57]: 3.37 µM
GI50 [58]: > 100 µM
TGI [58]: > 100 µM

From PubChem BioAssay (NCI)
